Measured values from patent US20080153850A1, “Adamantyl Derivates as P2x7 Receptor Antagonists” (AstraZeneca AB, priority 2004, published 2008).
Counter-ions that a name gives are not always drawn.

| melting point | Compound |
| --- | --- |
| 194 to 195 °C (dec.) | O=C(NCC12CC3CC(CC(C3)C1)C2)c1cc(-c2nccnc2C(=O)O)ccc1Cl (as salt: sodium) [Example 6, 3-[4-Chloro-3-[[(tricyclo[3.3.1.1^3,7]dec-1-ylmethyl)amino]carbonyl]phenyl]-2-pyrazinecarboxylic acid, monosodium salt] |
| 255 to 257 °C | O=C(O)c1cccc(-c2ccc(Cl)c(C(=O)NCC34CC5CC(CC(C5)C3)C4)c2)c1 [Example 2, 4′-Chloro-3′-[[(tricyclo[3.3.1.1^3,7]dec-1-ylmethyl)amino]carbonyl]-[1,1′-biphenyl]-3-carboxylic acid] |
| 215 to 220 °C (dec.) | N#CNc1cncc(-c2ccc(Cl)c(C(=O)NCC34CC5CC(CC(C5)C3)C4)c2)n1 [Example 4, 2-Chloro-5-[6-(cyanoamino)pyrazinyl]-N-(tricyclo[3.3.1.1^3,7]dec-1-ylmethyl)-benzamide] |
| 169 to 172 °C | O=C(NCC12CC3CC(CC(C3)C1)C2)c1cc(-c2ncccc2C(=O)O)ccc1Cl [Example 10, 2-[4-Chloro-3-[[(tricyclo[3.3.1.1^3,7]dec-1-ylmethyl)amino]carbonyl]phenyl]-3-pyridinecarboxylic acid] |
| 209 to 211 °C | Cc1ccc(C(=O)O)c(-c2ccc(Cl)c(C(=O)NCC34CC5CC(CC(C5)C3)C4)c2)n1 [Example 13, 2-[4-Chloro-3-[[(tricyclo[3.3.1.1^3,7]dec-1-ylmethyl)amino]carbonyl]phenyl]-6-methyl-3-pyridinecarboxylic acid] |
| 107 to 110 °C | C[C@H](Oc1ccccc1-c1ccc(Cl)c(C(=O)NCC23CC4CC(CC(C4)C2)C3)c1)C(=O)O [Example 14, (2S)-2-[[4′-chloro-3′-[[(tricyclo[3.3.1.1^3,7]dec-1-ylmethyl)amino]carbonyl][1,1′-biphenyl]-2-yl]oxy]-propanoic acid] |
| 163 to 164 °C | O=C(O)CCOc1ccccc1-c1ccc(Cl)c(C(=O)NCC23CC4CC(CC(C4)C2)C3)c1 [Example 16, 3-[[4′-Chloro-3′-[[(tricyclo[3.3.1.1^3,7]dec-1-ylmethyl)amino]carbonyl][1,1′-biphenyl]-2-yl]oxy]-propanoic acid] |
| 140 to 143 °C | O=C(NCC12CC3CC(CC(C3)C1)C2)c1cc(-c2ccsc2C(=O)O)ccc1Cl [Example 19, 3-[4-Chloro-3-[[(tricyclo[3.3.1.1^3,7]dec-1-ylmethyl)amino]carbonyl]phenyl]-2-thiophenecarboxylic acid] |
| 170 to 173 °C | O=C(O)c1cccc(-c2ccc(Cl)c(C(=O)NCC34CC5CC(CC(C5)C3)C4)c2)n1 [Example 20, 6-[4-Chloro-3-[[(tricyclo[3.3.1.1^3,7]dec-1-ylmethyl)amino]carbonyl]phenyl]-2-pyridinecarboxylic acid] |
| 160 to 162 °C | CS(=O)(=O)NC(=O)c1cccc(-c2ccc(Cl)c(C(=O)NCC34CC5CC(CC(C5)C3)C4)c2)n1 [Example 25, 6-[4-Chloro-3-[[(tricyclo[3.3.1.1^3,7]dec-1-ylmethyl)amino]carbonyl]phenyl]-N-(methylsulfonyl)-2-pyridinecarboxamide] |
| 160 to 164 °C | O=C(O)CNc1ncccc1-c1ccc(Cl)c(C(=O)NCC23CC4CC(CC(C4)C2)C3)c1 [Example 26, N-[3-[4-Chloro-3-[[(tricyclo[3.3.1.1^3,7]dec-1-ylmethyl)amino]carbonyl]phenyl]-2-pyridinyl]-glycine] |
| 115 to 120 °C | CS(=O)(=O)Nc1cccc(-c2ccc(Cl)c(C(=O)NCC34CC5CC(CC(C5)C3)C4)c2)n1 [Example 27, 2-Chloro-5-[6-[(methylsulfonyl)amino]-2-pyridinyl]-N-(tricyclo[3.3.1.1^3,7]dec-1-ylmethyl)-benzamide] |
| 219 to 221 °C | COc1ccc(-c2ccc(Cl)c(C(=O)NCC34CC5CC(CC(C5)C3)C4)c2)c(C(=O)O)c1 [Example 30, 4′-Chloro-4-methoxy-3′-[[(tricyclo[3.3.1.1^3,7]dec-1-ylmethyl)amino]carbonyl]-[1,1′-biphenyl]-2-carboxylic acid] |
| 166 to 175 °C (dec.) | Cn1cc(-c2ccc(Cl)c(C(=O)NCC34CC5CC(CC(C5)C3)C4)c2)c(C(=O)O)n1 [Example 31, 4-[4-Chloro-3-[[(tricyclo[3.3.1.1^3,7]dec-1-ylmethyl)amino]carbonyl]phenyl]-1-methyl-1H-pyrazole-3-carboxylic acid] |
| 187 to 190 °C (dec.) | Cn1ncc(-c2ccc(Cl)c(C(=O)NCC34CC5CC(CC(C5)C3)C4)c2)c1C(=O)O [Example 32, 4-[4-Chloro-3-[[(tricyclo[3.3.1.1^3,7]dec-1-ylmethyl)amino]carbonyl]phenyl]-1-methyl-1H-pyrazole-5-carboxylic acid] |
| 151 to 153 °C (dec.) | CN(CC(=O)O)c1nccnc1-c1ccc(Cl)c(C(=O)NCC23CC4CC(CC(C4)C2)C3)c1 [Example 33, N-[3-[4-Chloro-3-[[(tricyclo[3.3.1.1^3,7]dec-1-ylmethyl)amino]carbonyl]phenyl]pyrazinyl]-N-methyl-glycine] |
| 136 to 140 °C | O=C(NCC12CC3CC(CC(C3)C1)C2)c1cc(-c2nccnc2N2CCC(C(=O)O)CC2)ccc1Cl [Example 34, 1-[3-[4-Chloro-3-[[(tricyclo[3.3.1.1^3,7]dec-1-ylmethyl)amino]carbonyl]phenyl]pyrazinyl]-4-piperidinecarboxylic acid] |

Further lines, the molecule ahead of its results:

| Compound | melting point |
| --- | --- |
| O=C(O)Cc1ncccc1-c1ccc(Cl)c(C(=O)NCC23CC4CC(CC(C4)C2)C3)c1 (as salt: sodium) [Example 58, 3-[4-Chloro-3-[[(tricyclo[3.3.1.1^3,7]dec-1-ylmethyl)amino]carbonyl]phenyl]-2-pyridineacetic acid, monosodium salt] | 186 to 187 °C (dec.) |
| O=C(NCC12CC3CC(CC(C3)C1)C2)c1cc(-c2ccccc2C(=O)O)ccc1Cl [Example 3, 4′-Chloro-3′-[[(tricyclo[3.3.1.1^3,7]dec-1-ylmethyl)amino]carbonyl]-[1,1′-biphenyl]-2-carboxylic acid] | 228 to 230 °C |
| N#CNc1nccnc1-c1ccc(Cl)c(C(=O)NCC23CC4CC(CC(C4)C2)C3)c1 [Example 5, 2-Chloro-5-[3-(cyanamino)pyrazinyl]-N-(tricyclo[3.3.1.1^3,7]dec-1-ylmethyl)-benzamide] | 110 to 115 °C (dec.) |
| O=C(O)c1cccc(-c2cc(C(=O)NCC34CC5CC(CC(C5)C3)C4)c(Cl)cn2)c1 [Example 7, 3-[5-Chloro-4-[[(tricyclo [3.3.1.1^3,7]dec-1-ylmethyl)amino]carbonyl]-2-pyridinyl]-benzoic acid] | 200 to 202 °C |
| CS(=O)(=O)Nc1nccnc1-c1ccc(Cl)c(C(=O)NCC23CC4CC(CC(C4)C2)C3)c1 [Example 8, 2-Chloro-5-[3-[(methylsulfonyl)amino)pyrazinyl]-N-(tricyclo[3.3.1.1^3,7]dec-1-ylmethyl)-benzamide] | 245 °C (dec.) |
| O=C(NCC12CC3CC(CC(C3)C1)C2)c1cc(-c2nccnc2-c2nnn[nH]2)ccc1Cl [Example 9, 2-Chloro-5-[3(1-H-tetrazol-5-yl)pyrazinyl]-N-(tricyclo[3.3.1.1^3,7]dec-1-ylmethyl)-benzamide] | 254 °C (dec.) |
| O=C(O)c1ccnc(-c2ccc(Cl)c(C(=O)NCC34CC5CC(CC(C5)C3)C4)c2)c1 [Example 12, 2-[4-Chloro-3-[[(tricyclo[3.3.1.1^3,7]dec-1-ylmethyl)amino]carbonyl]phenyl]-4-pyridinecarboxylic acid] | 284 to 287 °C |
| O=C(O)COc1ccccc1-c1ccc(Cl)c(C(=O)NCC23CC4CC(CC(C4)C2)C3)c1 [Example 15, [[4′-Chloro-3′-[[(tricyclo[3.3.1.1^3,7]dec-1-ylmethyl)amino]carbonyl][1,1′-biphenyl]-2-yl]oxy]-acetic acid] | 208 to 210 °C |
| O=C(NCC12CC3CC(CC(C3)C1)C2)c1cc(-c2ncc(Cl)cc2C(=O)O)ccc1Cl [Example 17, 5-Chloro-2-[4-chloro-3-[[(tricyclo[3.3.1.1^3,7]dec-1-ylmethyl)amino]carbonyl]phenyl]-3-pyridinecarboxylic acid] | 165 to 168 °C |
| Cc1cccc(C(=O)O)c1-c1ccc(Cl)c(C(=O)NCC23CC4CC(CC(C4)C2)C3)c1 [Example 18, 4′-Chloro-6-methyl-3′-[[(tricyclo[3.3.1.1^3,7]dec-1-ylmethyl)amino]carbonyl]-[1,1′-biphenyl]-2-carboxylic acid] | 151 to 154 °C |
| O=C(O)c1coc(-c2ccc(Cl)c(C(=O)NCC34CC5CC(CC(C5)C3)C4)c2)n1 [Example 23, 2-[4-Chloro-3-[[(tricyclo[3.3.1.1^3,7]dec-1-ylmethyl)amino]carbonyl]phenyl]-4-oxazolecarboxylic acid] | 254 to 257 °C |
| Cc1ccc(-c2ccc(Cl)c(C(=O)NCC34CC5CC(CC(C5)C3)C4)c2)c(C(=O)O)c1 [Example 24, 4′-Chloro-4-methyl-3′-[[(tricyclo[3.3.1.1^3,7]dec-1-ylmethyl)amino]carbonyl]-[1,1′-biphenyl]-2-carboxylic acid] | 214 to 216 °C |
| O=C(O)COc1ncccc1-c1ccc(Cl)c(C(=O)NCC23CC4CC(CC(C4)C2)C3)c1 [Example 28, [[3-[4-Chloro-3-[[(tricyclo[3.3.1.1^3,7]dec-1-ylmethyl)amino]carbonyl]phenyl]-2-pyridinyl]oxy]-acetic acid] | 226 to 229 °C |
| O=C(NCC12CC3CC(CC(C3)C1)C2)c1cc(-c2ncccc2OCc2nnn[nH]2)ccc1Cl [Example 29, 2-Chloro-5-[3-(1H-tetrazol-5-ylmethoxy)-2-pyridinyl]-N-(tricyclo[3.3.1.1^3,7]dec-1-ylmethyl)-benzamide] | 122 to 126 °C |
| O=C(NCC12CC3CC(CC(C3)C1)C2)c1cc(-c2c(F)cccc2C(=O)O)ccc1Cl [Example 35, 4′-Chloro-6-fluoro-3′-[[(tricyclo[3.3.1.1^3,7]dec-1-ylmethyl)amino]carbonyl]-[1,1′-biphenyl]-2-carboxylic acid] | 108 to 113 °C |
| O=C(NCC12CC3CC(CC(C3)C1)C2)c1cc(-c2cc(F)ccc2C(=O)O)ccc1Cl [Example 36, 4′-Chloro-5-fluoro-3′-[[(tricyclo[3.3.1.1^3,7]dec-1-ylmethyl)amino]carbonyl]-[1,1′-biphenyl]-2-carboxylic acid] | 120 to 124 °C |
